Assay results taken from patent US20260132132A1, “3A,4,5,6-TETRAHYDRO-1 H-PYRAZOLO[3,4-C]PYRIDIN-7(7AH)-ONE DERIVATIVES AS FACTOR XIIA INHIBITORS” (KALVISTA PHARMACEUTICALS LIMITED, priority 2022, published 2026).
pIC50: −log10 of the molar value.

What was measured:
[1] = target: T1, Human Factor XIIa (hFXIIa) (Homo sapiens, UniProt P00748); experiment: Determination of Human Factor XIIa (hFXIIa) inhibition, fluorogenic substrate IC50 assay; type: biochemical; settings: fluorogenic substrate H-DPro-Phe-Arg-AFC at Km, 25° C., read-out: Human FXIIa IC50
T1 construct: purchased Enzyme Research Laboratories
T1 sequence (P00748 373-615 limits assumed): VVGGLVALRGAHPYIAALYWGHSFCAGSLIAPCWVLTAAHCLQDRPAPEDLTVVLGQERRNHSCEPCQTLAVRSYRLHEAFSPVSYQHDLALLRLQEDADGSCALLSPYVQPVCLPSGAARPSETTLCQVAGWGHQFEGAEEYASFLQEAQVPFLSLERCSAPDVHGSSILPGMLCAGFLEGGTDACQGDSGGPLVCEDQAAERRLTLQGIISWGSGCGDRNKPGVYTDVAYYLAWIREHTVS
T1 sequence (P00748 20-372 partner limits assumed): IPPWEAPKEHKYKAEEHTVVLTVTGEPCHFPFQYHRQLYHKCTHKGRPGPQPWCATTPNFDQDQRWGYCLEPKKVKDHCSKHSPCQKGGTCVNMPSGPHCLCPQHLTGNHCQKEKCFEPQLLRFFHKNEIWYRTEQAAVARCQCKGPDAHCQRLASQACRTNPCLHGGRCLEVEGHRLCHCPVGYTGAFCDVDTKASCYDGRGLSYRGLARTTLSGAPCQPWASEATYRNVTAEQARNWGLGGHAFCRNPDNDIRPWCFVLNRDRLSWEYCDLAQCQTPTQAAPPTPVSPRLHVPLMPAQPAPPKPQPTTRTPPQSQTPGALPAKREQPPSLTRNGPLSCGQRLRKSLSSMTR
Protocol: Determination of Human Factor XIIa (hFXIIa) inhibition
The Km for the cleavage of the substrate by hFXIIa was determined by standard transformation of the Michaelis-Menten equation, with subsequent inhibition assays performed at substrate Km concentration.

FXa = FXa (Homo sapiens, UniProt P00742); experiment: Related protease inhibition: FXa, fluorogenic substrate; type: biochemical; settings: fluorogenic substrate at Km, 25° C.; H1-H3 = % activity at 40 μM; read-out: IC50 (human FXa) nM
FXa, sequence (P00742 235-488 limits assumed): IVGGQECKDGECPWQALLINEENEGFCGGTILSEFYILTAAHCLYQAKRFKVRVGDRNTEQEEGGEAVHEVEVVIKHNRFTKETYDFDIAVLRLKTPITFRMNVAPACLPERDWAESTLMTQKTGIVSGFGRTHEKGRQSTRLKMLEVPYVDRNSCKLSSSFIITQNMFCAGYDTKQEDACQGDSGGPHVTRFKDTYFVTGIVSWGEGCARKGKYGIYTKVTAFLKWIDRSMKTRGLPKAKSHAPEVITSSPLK
FXa, sequence (P00742 41-179 partner limits assumed): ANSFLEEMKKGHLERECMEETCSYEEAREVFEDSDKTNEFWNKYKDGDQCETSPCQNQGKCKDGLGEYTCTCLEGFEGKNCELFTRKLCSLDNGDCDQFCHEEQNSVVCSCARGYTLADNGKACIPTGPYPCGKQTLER
Protocol: (§1) Human serine protease enzyme Plasma Kallikrein, KLK1, FXa, Plasmin, Thrombin and Trypsin were assayed for enzymatic activity using an appropriate fluorogenic substrate at Km concentration, FXIa at fixed substrate concentration of 100 μM and various concentrations of the test compound.

Thrombin = Thrombin (Homo sapiens, UniProt P00734); experiment: Related protease inhibition: Thrombin, fluorogenic substrate; type: biochemical; settings: fluorogenic substrate at Km, 25° C.; H1-H3 = % activity at 40 μM; read-out: IC50 (human thrombin) nM
Protocol: as §1

[2] = Pharmacokinetics following a single intravenous dose and a single oral dose in rats; type: in vivo; settings: rat, male Sprague-Dawley rats, single iv dose (nominal 1 mg/kg) and single oral dose (nominal 5 mg/kg) in 10% DMSO/10% Cremophor EL/80% SWFI, plasma by LCMS, Phoenix WinNonlin; for bioavailability: read-out: F % (oral bioavailability); for half-life: route for T½ not stated
Protocol: Pharmacokinetic studies of the compounds in Table 10 were performed to assess the pharmacokinetics following a single intravenous dose and a single oral dose in male Sprague-Dawley rats. Two rats were given a single intravenous dose of 1 ml/kg of a nominal 1 mg/ml (1 mg/kg) composition of test compound in 10% DMSO/10% Cremophor EL/80% SWFI vehicle. Two rats were given a single oral dose of 5 mL/kg of a nominal 1 mg/ml (5 mg/kg) composition of test compound in 10% DMSO/10% Cremophor EL/80% SWFI vehicle.
Following intravenous dosing, blood samples were collected over a period of 12 h. Sample times were 2, 5, 15 and 30 min then 1, 2, 4, 6, and 12 h. Following oral dosing, blood samples were collected over a period of 24 h. Sample times were 5, 15 and 30 min then 1, 2, 4, 6, 8, 12 and 24 h.
Following collection, blood samples were centrifuged and the plasma fraction analysed for concentration of test compound by LCMS. Oral bioavailability and half-life calculations from these studies were obtained using Phoenix WinNonlin (v8.0) and are shown below: […]

[3] = tested on: patients with type I/II hereditary angioedema (HAE); settings: phase 3 study; monthly prophylactic subcutaneous treatment; cited from earlier work

| pIC50 [1] | activity at 40 µM (FXa) | activity at 40 µM (Thrombin) | bioavailability [2] | half-life [2] | Compound | attacks in patients with type I/II hereditary angioedema (HAE) [3] |
| --- | --- | --- | --- | --- | --- | --- |
| 7.00 to 8.00 | 20 to 80% | > 80% | 57% | 0.817 h | CN1CCOc2ccc(N3CCc4c(C(=O)N[C@@H]5CCOC5)nn(-c5cccc(Cl)c5F)c4C3=O)cc2C1=O [Example 2048, (R)-1-(3-chloro-2-fluorophenyl)-6-(4-methyl-5-oxo-2,3,4,5-tetrahydrobenzo[f][1,4]oxazepin-7-yl)-7-oxo-N-(tetrahydrofuran-3-yl)-4,5,6,7-tetrahydro-1H-pyrazolo[3,4-c]pyridine-3-carboxamide] | – |
| 7.00 to 8.00 | < 20% | > 80% | 28% | 1.42 h | CN1CCOc2ccc(N3CCc4c(C(=O)N[C@@H](CO)C5CC5)nn(-c5cccc(Cl)c5F)c4C3=O)cc2C1=O [Example 2049, (R)-1-(3-chloro-2-fluorophenyl)-N-(1-cyclopropyl-2-hydroxyethyl)-6-(4-methyl-5-oxo-2,3,4,5-tetrahydrobenzo[f][1,4]oxazepin-7-yl)-7-oxo-4,5,6,7-tetrahydro-1H-pyrazolo[3,4-c]pyridine-3-carboxamide] | – |
| – | – | – | – | – | Garadacimab: "a monoclonal antibody inhibitory against FXIIa" | reduce attacks |
